Patent publication US12077503B2, “Substituted cyclic amides and their use as herbicides” (FMC CORPORATION, priority 2015, dated 2024)

Key:
Format in all cases: in vivo
[1] = test system: redroot pigweed (Amaranthus retroflexus); assay: Test G Post-Emergence Protocol; details: Amaranthus retroflexus, post-emergence, 312 h; for pest or weed control at 15.625 g/ha: 15.625 g ai/ha, evaluated after 13 days (100=total damage to plant; 0=no damage to plant), read-out: Pigweed, Redroot damage rating; for pest or weed control at 62.5 g/ha: 62.5 g ai/ha, read-out: Pigweed, Redroot damage rating (100=total damage to plant; 0=no damage to plant); for pest or weed control at 62.5 g/ha / pest or weed control at 250 g/ha: evaluated after 13 days; for pest or weed control at 250 g/ha: 250 g ai/ha, read-out: damage to plant, Pigweed, Redroot (100=total damage to plant; 0=no damage to plant)
Summary of the method: (§1)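 Seedlings grown 8 days in soil in a glasshouse (24/16 °C day/night, 14 h light, 65% humidity) were sprayed post-emergence with compound in acetone/water 50:50 plus 0.5% Tween 20 at 15.625, 62.5 or 250 g/ha. Damage was scored after 13 days on a 0–100 scale (100 = total damage).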

[2] = test system: barnyardgrass (Echinochloa crus-galli); assay: Test G Post-Emergence Protocol; details: Echinochloa crus-galli, post-emergence, 312 h; for pest or weed control at 15.625 g/ha: 15.625 g ai/ha, evaluated after 13 days (100=total damage to plant; 0=no damage to plant), read-out: Barnyardgrass damage rating; for pest or weed control at 62.5 g/ha: 62.5 g ai/ha, read-out: Barnyardgrass damage rating (100=total damage to plant; 0=no damage to plant); for pest or weed control at 62.5 g/ha / pest or weed control at 250 g/ha: evaluated after 13 days; for pest or weed control at 250 g/ha: 250 g ai/ha, read-out: damage to plant, Barnyardgrass (100=total damage to plant; 0=no damage to plant)
Summary of the method: as §1

[3] = test system: ivy-leaved morning glory (Ipomoea hederacea); assay: Test G Post-Emergence Protocol; details: Ipomoea, post-emergence, 312 h; for pest or weed control at 15.625 g/ha: 15.625 g ai/ha, evaluated after 13 days (100=total damage to plant; 0=no damage to plant), read-out: Morningglory, Ivy-leaved damage rating; for pest or weed control at 62.5 g/ha: 62.5 g ai/ha, read-out: Morningglory, Ivy-leaved damage rating (100=total damage to plant; 0=no damage to plant); for pest or weed control at 62.5 g/ha / pest or weed control at 250 g/ha: evaluated after 13 days; for pest or weed control at 250 g/ha: 250 g ai/ha, read-out: damage to plant, Morningglory, Ivy-leaved (100=total damage to plant; 0=no damage to plant)
Summary of the method: as §1

[4] = test system: velvetleaf (Abutilon theophrasti); assay: Test G Post-Emergence Protocol; details: Abutilon theophrasti, post-emergence, 312 h; for pest or weed control at 15.625 g/ha: 15.625 g ai/ha, evaluated after 13 days (100=total damage to plant; 0=no damage to plant), read-out: Velvetleaf damage rating; for pest or weed control at 62.5 g/ha: 62.5 g ai/ha, read-out: Velvetleaf damage rating (100=total damage to plant; 0=no damage to plant); for pest or weed control at 62.5 g/ha / pest or weed control at 250 g/ha: evaluated after 13 days; for pest or weed control at 250 g/ha: 250 g ai/ha, read-out: damage to plant, Velvetleaf (100=total damage to plant; 0=no damage to plant)
Summary of the method: as §1

[5] = test system: corn (Zea mays); assay: Test G Post-Emergence Protocol; details: Zea mays, post-emergence, 312 h; for plant injury at 15.625 g/ha: 15.625 g ai/ha, evaluated after 13 days (100=total damage to plant; 0=no damage to plant), read-out: Corn damage rating; for plant injury at 62.5 g/ha: 62.5 g ai/ha, read-out: Corn damage rating (100=total damage to plant; 0=no damage to plant); for plant injury at 62.5 g/ha / plant injury at 250 g/ha: evaluated after 13 days; for plant injury at 250 g/ha: 250 g ai/ha, read-out: damage to plant, Corn (100=total damage to plant; 0=no damage to plant)
Summary of the method: as §1

[6] = test system: giant foxtail (Setaria faberi); assay: Test G Post-Emergence Protocol; details: Setaria faberi, post-emergence, 312 h; for pest or weed control at 15.625 g/ha: 15.625 g ai/ha, evaluated after 13 days (100=total damage to plant; 0=no damage to plant), read-out: Foxtail, Giant damage rating; for pest or weed control at 62.5 g/ha: 62.5 g ai/ha, read-out: Foxtail, Giant damage rating (100=total damage to plant; 0=no damage to plant); for pest or weed control at 62.5 g/ha / pest or weed control at 250 g/ha: evaluated after 13 days; for pest or weed control at 250 g/ha: 250 g ai/ha, read-out: damage to plant, Foxtail, Giant (100=total damage to plant; 0=no damage to plant)
Summary of the method: as §1

[7] = test system: redroot pigweed (Amaranthus retroflexus); assay: Test G Pre-Emergence Protocol; details: Amaranthus retroflexus, pre-emergence, 312 h, evaluated after 13 days; for pest or weed control at 15.625 g/ha: 15.625 g ai/ha; for pest or weed control at 15.625 g/ha / pest or weed control at 250 g/ha: read-out: Pigweed, Redroot damage rating (100=total damage to plant; 0=no damage to plant); for pest or weed control at 62.5 g/ha: 62.5 g ai/ha, 100=total damage to plant, 0=no damage to plant, read-out: plant damage rating, Pigweed, Redroot; for pest or weed control at 250 g/ha: 250 g ai/ha
Summary of the method: (§2)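 Under a 24/16° C day/night regime with 14 h light and 65% humidity, sown pots were sprayed after one day with compound (15.625, 62.5 or 250 g/ha; 50:50 acetone/water, 0.5% Tween 20). Damage was assessed visually 13 days later, 0 to 100.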

[8] = test system: barnyardgrass (Echinochloa crus-galli); assay: Test G Pre-Emergence Protocol; details: Echinochloa crus-galli, pre-emergence, 312 h, evaluated after 13 days; for pest or weed control at 15.625 g/ha: 15.625 g ai/ha, read-out: Barnyard grass damage rating (100=total damage to plant; 0=no damage to plant); for pest or weed control at 62.5 g/ha: 62.5 g ai/ha, 100=total damage to plant, 0=no damage to plant, read-out: plant damage rating, Barnyardgrass; for pest or weed control at 250 g/ha: 250 g ai/ha, read-out: Barnyardgrass damage rating (100=total damage to plant; 0=no damage to plant)
Summary of the method: as §2

[9] = test system: ivy-leaved morning glory (Ipomoea hederacea); assay: Test G Pre-Emergence Protocol; details: Ipomoea, pre-emergence, 312 h, evaluated after 13 days; for pest or weed control at 15.625 g/ha: 15.625 g ai/ha, read-out: Morning-glory, Ivy-leaved damage rating (100=total damage to plant; 0=no damage to plant); for pest or weed control at 62.5 g/ha: 62.5 g ai/ha, 100=total damage to plant, 0=no damage to plant, read-out: plant damage rating, Morningglory, Ivy-leaved; for pest or weed control at 250 g/ha: 250 g ai/ha, read-out: Morningglory, Ivy-leaved damage rating (100=total damage to plant; 0=no damage to plant)
Summary of the method: as §2

[10] = test system: velvetleaf (Abutilon theophrasti); assay: Test G Pre-Emergence Protocol; details: Abutilon theophrasti, pre-emergence, 312 h, evaluated after 13 days; for pest or weed control at 15.625 g/ha: 15.625 g ai/ha; for pest or weed control at 15.625 g/ha / pest or weed control at 250 g/ha: read-out: Velvetleaf damage rating (100=total damage to plant; 0=no damage to plant); for pest or weed control at 62.5 g/ha: 62.5 g ai/ha, 100=total damage to plant, 0=no damage to plant, read-out: plant damage rating, Velvetleaf; for pest or weed control at 250 g/ha: 250 g ai/ha
Summary of the method: as §2

[11] = test system: corn (Zea mays); assay: Test G Pre-Emergence Protocol; details: Zea mays, pre-emergence, 312 h, evaluated after 13 days; for plant injury at 15.625 g/ha: 15.625 g ai/ha; for plant injury at 15.625 g/ha / plant injury at 250 g/ha: read-out: Corn damage rating (100=total damage to plant; 0=no damage to plant); for plant injury at 62.5 g/ha: 62.5 g ai/ha, 100=total damage to plant, 0=no damage to plant, read-out: plant damage rating, Corn; for plant injury at 250 g/ha: 250 g ai/ha
Summary of the method: as §2

[12] = test system: giant foxtail (Setaria faberi); assay: Test G Pre-Emergence Protocol; details: Setaria faberi, pre-emergence, 312 h, evaluated after 13 days; for pest or weed control at 15.625 g/ha: 15.625 g ai/ha; for pest or weed control at 15.625 g/ha / pest or weed control at 250 g/ha: read-out: Foxtail, Giant damage rating (100=total damage to plant; 0=no damage to plant); for pest or weed control at 62.5 g/ha: 62.5 g ai/ha, 100=total damage to plant, 0=no damage to plant, read-out: plant damage rating, Foxtail, Giant; for pest or weed control at 250 g/ha: 250 g ai/ha
Summary of the method: as §2

| SMILES | pest or weed control at 15.625 g/ha [1] [%] | pest or weed control at 62.5 g/ha [1] [%] | pest or weed control at 250 g/ha [1] [%] | pest or weed control at 15.625 g/ha [2] [%] | pest or weed control at 62.5 g/ha [2] [%] | pest or weed control at 250 g/ha [2] [%] | pest or weed control at 15.625 g/ha [3] [%] | pest or weed control at 62.5 g/ha [3] [%] | pest or weed control at 250 g/ha [3] [%] | pest or weed control at 15.625 g/ha [4] [%] | pest or weed control at 62.5 g/ha [4] [%] | pest or weed control at 250 g/ha [4] [%] | plant injury at 15.625 g/ha [5] [%] | plant injury at 62.5 g/ha [5] [%] | plant injury at 250 g/ha [5] [%] | pest or weed control at 15.625 g/ha [6] [%] | pest or weed control at 62.5 g/ha [6] [%] | pest or weed control at 250 g/ha [6] [%] | pest or weed control at 15.625 g/ha [7] [%] | pest or weed control at 62.5 g/ha [7] [%] | further results |
| --- | --- | --- | --- | --- | --- | --- | --- | --- | --- | --- | --- | --- | --- | --- | --- | --- | --- | --- | --- | --- | --- |
| C#Cc1ccccc1NC(=O)[C@H]1C(=O)N(C)C[C@@H]1c1ccc(C(F)(F)F)cc1 (racemic) [Compound 1422] | 0 | 0 | 0 | 0 | 0 | 0 | 0 | 0 | 0 | 0 | 0 | 0 | 10 | 10 | 0 | 0 | 0 | 20 | 0 | 0 | pest or weed control at 250 g/ha [7]: 0%; pest or weed control at 15.625 g/ha [8]: 0%; pest or weed control at 62.5 g/ha [8]: 0%; pest or weed control at 250 g/ha [8]: 0%; pest or weed control at 15.625 g/ha [9]: 0%; pest or weed control at 62.5 g/ha [9]: 0%; pest or weed control at 250 g/ha [9]: 0%; pest or weed control at 15.625 g/ha [10]: 0%; pest or weed control at 62.5 g/ha [10]: 0%; pest or weed control at 250 g/ha [10]: 0%; plant injury at 15.625 g/ha [11]: 0%; plant injury at 62.5 g/ha [11]: 0%; plant injury at 250 g/ha [11]: 0%; pest or weed control at 15.625 g/ha [12]: 0%; pest or weed control at 62.5 g/ha [12]: 10%; pest or weed control at 250 g/ha [12]: 50% |
| CN1C[C@H](c2ccc(C(F)(F)F)cc2)[C@@H](C(=O)NC2=NOC(C)(C)C2)C1=O (racemic) [Compound 1427] | 0 | 0 | 0 | 0 | 0 | 0 | 0 | 0 | 0 | 0 | 0 | 0 | 0 | 0 | 0 | 0 | 0 | 0 | 0 | 0 | pest or weed control at 250 g/ha [7]: 0%; pest or weed control at 15.625 g/ha [8]: 0%; pest or weed control at 62.5 g/ha [8]: 0%; pest or weed control at 250 g/ha [8]: 0%; pest or weed control at 15.625 g/ha [9]: 0%; pest or weed control at 62.5 g/ha [9]: 0%; pest or weed control at 250 g/ha [9]: 0%; pest or weed control at 15.625 g/ha [10]: 0%; pest or weed control at 62.5 g/ha [10]: 0%; pest or weed control at 250 g/ha [10]: 0%; plant injury at 15.625 g/ha [11]: 0%; plant injury at 62.5 g/ha [11]: 0%; plant injury at 250 g/ha [11]: 0%; pest or weed control at 15.625 g/ha [12]: 0%; pest or weed control at 62.5 g/ha [12]: 0%; pest or weed control at 250 g/ha [12]: 0% |
